Reference: patent US20260130395A1, “Water Dispersible Botanical Compositions” (Aquila Black Limited, priority 2021, published 2026)

Test: Stability of cannabinoid compounds and Vitamin E components in Beverage 1 (AB White) by LCMSMS
Type: physicochemical
Protocol: The stability of the plant-derived cannabinoid compounds and Vitamin E components of the beverage stored 8° C. and at room temperature (21-25° C.) were monitored, over a period of 570 days via Liquid Chromatography-tandem Mass Spectrometry [LCMSMS, Agilent 6590, C18, 3×50 mm, 2.7 m (Agilent InfinityLab Poroshell 120 EC-C18), Electrospray Ionization detector]. The LCMSMS was calibrated for 0-1000 ng/ml cannabinoids with the same resin material used in the preparation of the concentrates. At each time period, 100 ml of beverage was diluted with 10 ml of methanol and injected into the LCMSMS for analysis.

## Cc1c(C)c2c(c(C)c1OC(=O)CCC(=O)O)CC[C@@](C)(CCC[C@H](C)CCC[C@H](C)CCCC(C)C)O2 [α-Tocopheryl succinate]
Stored at 8° C., 0 days
  Stability of Vitamin Es in AB White: 12.8 µg/mL
Stored at 8° C., 1 days
  Stability of Vitamin Es in AB White: 11.83 µg/mL
Stored at 8° C., 2 days
  Stability of Vitamin Es in AB White: 12.31 µg/mL
Stored at 8° C., 3 days
  Stability of Vitamin Es in AB White: 11.94 µg/mL
Stored at 8° C., 5 days
  Stability of Vitamin Es in AB White: 11.44 µg/mL
Stored at 8° C., 8 days
  Stability of Vitamin Es in AB White: 11.48 µg/mL
Stored at 8° C., 9 days
  Stability of Vitamin Es in AB White: 12.08 µg/mL
Stored at 8° C., 10 days
  Stability of Vitamin Es in AB White: 12.28 µg/mL
Stored at 8° C., 11 days
  Stability of Vitamin Es in AB White: 11.94 µg/mL
Stored at 8° C., 12 days
  Stability of Vitamin Es in AB White: 12.41 µg/mL
Stored at 8° C., 15 days
  Stability of Vitamin Es in AB White: 11.56 µg/mL
Stored at 8° C., 16 days
  Stability of Vitamin Es in AB White: 12.09 µg/mL
Stored at 8° C., 17 days
  Stability of Vitamin Es in AB White: 11.60 µg/mL
Stored at 8° C., 18 days
  Stability of Vitamin Es in AB White: 11.59 µg/mL
Stored at 8° C., 19 days
  Stability of Vitamin Es in AB White: 11.89 µg/mL
Stored at 8° C., 22 days
  Stability of Vitamin Es in AB White: 11.81 µg/mL
Stored at 8° C., 23 days
  Stability of Vitamin Es in AB White: 11.46 µg/mL
Stored at 8° C., 24 days
  Stability of Vitamin Es in AB White: 11.75 µg/mL
Stored at 8° C., 25 days
  Stability of Vitamin Es in AB White: 12.41 µg/mL
Stored at 8° C., 26 days
  Stability of Vitamin Es in AB White: 11.64 µg/mL
Stored at 8° C., 29 days
  Stability of Vitamin Es in AB White: 12.43 µg/mL
Stored at 8° C., 30 days
  Stability of Vitamin Es in AB White: 11.78 µg/mL
Stored at 8° C., 60 days
  Stability of Vitamin Es in AB White: 12.18 µg/mL
Stored at 8° C., 90 days
  Stability of Vitamin Es in AB White: 11.33 µg/mL
Stored at 8° C., 120 days
  Stability of Vitamin Es in AB White: 11.31 µg/mL
Stored at 8° C., 150 days
  Stability of Vitamin Es in AB White: 12.29 µg/mL
Stored at 8° C., 180 days
  Stability of Vitamin Es in AB White: 11.74 µg/mL
Stored at 8° C., 210 days
  Stability of Vitamin Es in AB White: 11.40 µg/mL
Stored at 8° C., 240 days
  Stability of Vitamin Es in AB White: 11.70 µg/mL
Stored at 8° C., 270 days
  Stability of Vitamin Es in AB White: 11.24 µg/mL
Stored at 8° C., 300 days
  Stability of Vitamin Es in AB White: 11.53 µg/mL
Stored at 8° C., 330 days
  Stability of Vitamin Es in AB White: 11.81 µg/mL
Stored at 8° C., 360 days
  Stability of Vitamin Es in AB White: 11.10 µg/mL
Stored at 8° C., 390 days
  Stability of Vitamin Es in AB White: 11.34 µg/mL
Stored at 8° C., 420 days
  Stability of Vitamin Es in AB White: 11.30 µg/mL
Stored at 8° C., 450 days
  Stability of Vitamin Es in AB White: 11.28 µg/mL
Stored at 8° C., 480 days
  Stability of Vitamin Es in AB White: 10.58 µg/mL
Stored at 8° C., 510 days
  Stability of Vitamin Es in AB White: 10.83 µg/mL
Stored at 8° C., 540 days
  Stability of Vitamin Es in AB White: 10.58 µg/mL
Stored at 8° C., 570 days
  Stability of Vitamin Es in AB White: 10.93 µg/mL
Stored at 21-25° C., 0 days
  Stability of Vitamin Es in AB White: 12.8 µg/mL
Stored at 21-25° C., 1 days
  Stability of Vitamin Es in AB White: 12.6 µg/mL
Stored at 21-25° C., 2 days
  Stability of Vitamin Es in AB White: 12.3 µg/mL
Stored at 21-25° C., 3 days
  Stability of Vitamin Es in AB White: 12.0 µg/mL
Stored at 21-25° C., 5 days
  Stability of Vitamin Es in AB White: 12.0 µg/mL
Stored at 21-25° C., 8 days
  Stability of Vitamin Es in AB White: 11.9 µg/mL
Stored at 21-25° C., 9 days
  Stability of Vitamin Es in AB White: 12.7 µg/mL
Stored at 21-25° C., 10 days
  Stability of Vitamin Es in AB White: 12.5 µg/mL
Stored at 21-25° C., 11 days
  Stability of Vitamin Es in AB White: 11.8 µg/mL
Stored at 21-25° C., 12 days
  Stability of Vitamin Es in AB White: 11.6 µg/mL
Stored at 21-25° C., 15 days
  Stability of Vitamin Es in AB White: 12.6 µg/mL
Stored at 21-25° C., 16 days
  Stability of Vitamin Es in AB White: 11.7 µg/mL
Stored at 21-25° C., 17 days
  Stability of Vitamin Es in AB White: 13.0 µg/mL
Stored at 21-25° C., 18 days
  Stability of Vitamin Es in AB White: 12.9 µg/mL
Stored at 21-25° C., 19 days
  Stability of Vitamin Es in AB White: 12.3 µg/mL
Stored at 21-25° C., 22 days
  Stability of Vitamin Es in AB White: 12.2 µg/mL
Stored at 21-25° C., 23 days
  Stability of Vitamin Es in AB White: 12.3 µg/mL
Stored at 21-25° C., 24 days
  Stability of Vitamin Es in AB White: 12.5 µg/mL
Stored at 21-25° C., 25 days
  Stability of Vitamin Es in AB White: 12.4 µg/mL
Stored at 21-25° C., 26 days
  Stability of Vitamin Es in AB White: 12.2 µg/mL
Stored at 21-25° C., 29 days
  Stability of Vitamin Es in AB White: 12.4 µg/mL
Stored at 21-25° C., 30 days
  Stability of Vitamin Es in AB White: 12.0 µg/mL
Stored at 21-25° C., 60 days
  Stability of Vitamin Es in AB White: 11.9 µg/mL
Stored at 21-25° C., 90 days
  Stability of Vitamin Es in AB White: 11.9 µg/mL
Stored at 21-25° C., 120 days
  Stability of Vitamin Es in AB White: 12.1 µg/mL
Stored at 21-25° C., 150 days
  Stability of Vitamin Es in AB White: 12.7 µg/mL
Stored at 21-25° C., 180 days
  Stability of Vitamin Es in AB White: 11.6 µg/mL
Stored at 21-25° C., 210 days
  Stability of Vitamin Es in AB White: 11.5 µg/mL
Stored at 21-25° C., 240 days
  Stability of Vitamin Es in AB White: 11.5 µg/mL
Stored at 21-25° C., 270 days
  Stability of Vitamin Es in AB White: 11.2 µg/mL
Stored at 21-25° C., 300 days
  Stability of Vitamin Es in AB White: 11.4 µg/mL
Stored at 21-25° C., 330 days
  Stability of Vitamin Es in AB White: 11.3 µg/mL
Stored at 21-25° C., 360 days
  Stability of Vitamin Es in AB White: 11.5 µg/mL
Stored at 21-25° C., 390 days
  Stability of Vitamin Es in AB White: 11.3 µg/mL
Stored at 21-25° C., 420 days
  Stability of Vitamin Es in AB White: 11.6 µg/mL
Stored at 21-25° C., 450 days
  Stability of Vitamin Es in AB White: 11.5 µg/mL
Stored at 21-25° C., 480 days
  Stability of Vitamin Es in AB White: 10.8 µg/mL
Stored at 21-25° C., 510 days
  Stability of Vitamin Es in AB White: 10.9 µg/mL
Stored at 21-25° C., 540 days
  Stability of Vitamin Es in AB White: 10.9 µg/mL
Stored at 21-25° C., 570 days
  Stability of Vitamin Es in AB White: 10.6 µg/mL
